From US7238778B2, “Crystallized glucocorticoid receptor ligand binding domain polypeptide and screening methods employing same” (SmithKline Beecham Corporation, priority 2001, dated 2007)

Columns and labels:
[1] = biological target: T1, GST-GR LBD (F602S) 521–777 (Homo sapiens, UniProt P04150, F602S); experiment: Surface plasmon resonance (Biacore) binding of GST-GR LBD to immobilized TIF2 LXXLL peptide
T1 construct: GR-LBD(521–777) F602S; made in house; host or cells: E. coli BL21(DE3); TIF2 peptide made by chemical synthesis
T1 sequence (P04150 521-777 F602S): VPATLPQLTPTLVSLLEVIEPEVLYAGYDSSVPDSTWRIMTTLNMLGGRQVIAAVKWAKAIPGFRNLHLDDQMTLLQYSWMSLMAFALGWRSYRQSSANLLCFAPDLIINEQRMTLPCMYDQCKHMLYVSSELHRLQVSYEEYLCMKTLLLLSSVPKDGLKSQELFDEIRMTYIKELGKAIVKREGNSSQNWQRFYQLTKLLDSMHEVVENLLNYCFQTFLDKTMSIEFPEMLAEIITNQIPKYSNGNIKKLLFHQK
Method: Each point is the average of two determinations.
FIG. 2B was generated using Biacore techniques. Biacore relies on changes in the refractive index at the surface layer upon binding of a ligand to a protein immobilized on the layer. In this system, a collection of small ligands is injected sequentially in a 2–5 microliter cell, wherein the protein is immobilized within the cell. Binding is detected by surface plasmon resonance (SPR) by recording laser light refracting from the surface. […] The purified protein is then used in the assay without further preparation. A synthetic peptide with an amino-terminal biotin is coupled to a sensor chip immobilized with streptavidin. The chip thus prepared is then exposed to the potential ligand via the delivery system incorporated in the instruments sold by Biacore (Uppsala, Sweden) to pipet the ligands in a sequential manner (autosampler). The SPR signal on the chip is recorded and changes in the refractive index indicate an interaction between the immobilized target and the ligand. Analysis of the signal kinetics of on rate and off rate allows the discrimination between non-specific and specific interaction.

GR LBD (F602S) 521–777 = GR LBD (F602S) 521–777 (Homo sapiens, UniProt P04150, F602S); details: GST-GR fusion protein and cleaved GR LBD alone; 10 nM fluorescein dexamethasone, competed with 100 uM unlabeled dexamethasone (FIG. 2A)
GR LBD (F602S) 521–777, sequence (P04150 with tags, fused parts or gaps F602S): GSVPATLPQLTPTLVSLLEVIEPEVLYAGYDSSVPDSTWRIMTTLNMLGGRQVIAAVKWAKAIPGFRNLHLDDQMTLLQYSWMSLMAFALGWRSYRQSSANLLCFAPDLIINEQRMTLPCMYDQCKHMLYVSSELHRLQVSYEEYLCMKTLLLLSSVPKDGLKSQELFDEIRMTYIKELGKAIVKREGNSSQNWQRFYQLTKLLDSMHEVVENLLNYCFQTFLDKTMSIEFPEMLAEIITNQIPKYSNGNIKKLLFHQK
Method: FIG. 2A is a graph depicting the binding of 10 nM fluorescein dexamethasone to varied concentrations of GST-GR LBD (F602S) 521–777 (circles), GR LBD (F602S) 521–777 (triangles) and GR LBD (F602S) 521–777 in the presence of 100 uM unlabeled dexamethasone (squares) as measured by fluorescence polarization.
All experiments were conducted with buffer containing 10 mM HEPES pH 7.4, 0.15 M NaCl, 3 mM EDTA, 0.005% polysorbate-20 and 5 mM DTT. For activity determinations, 10 nM of fluorescein dexamethasone (Molecular Probes, Eugene, Ore.) was titrated with increasing concentrations of the glucocorticoid receptor in black 96-well plates (CoStar, Cambridge, Mass.). The fluorescence polarization values for each concentration of receptor were determined using a BMG PolarStar Galaxy fluorescence plate reader (BMG Labtechnologies GmbH, Offenburg, Germany) with 485 nm excitation and 520 nm emission filters. Binding isotherms were constructed and apparent EC50 values were determined by non-linear least squares fit of the data to an equation for a simple 1:1 interaction. […] For stability studies, the fluorescent polarization of 10 nM fluorescein dexamethasone with 1 μM GST-GR LBD 521–777 (F602S) is read at specific time intervals in the presence or absence of 25 uM of a peptide derived from the coactivator TIF2.

[2] = biological target: T2, GST-GR LBD 521–777 (F602S) (Homo sapiens, UniProt P04150, F602S); experiment: Stability of GR dexamethasone binding activity over time by fluorescence polarization; details: 25 uM peptide, 1 μM GST-GR LBD, 10 nM fluorescein dexamethasone (FIG. 2C)
T2 construct: GR-LBD(521–777) F602S; made in house; host or cells: E. coli BL21(DE3)
T2 sequence (P04150 521-777 F602S): T1 sequence (P04150 521-777 F602S)
Method: FIG. 2C is a graph depicting that TIF2 coactivator peptide enhances stability of GR dexamethasone binding activity. The effect of 25 uM coactivator peptide TIF2 732–756 (diamonds) or no peptide (squares) on the binding of GST-GR LBD (F602S) 521–777 to 10 nM fluorescein dexamethasone with time is determined by fluorescence polarization.

effect on the dexamethasone binding activity of the GST-GR fusion protein with time [2]	affinity of the TIF2 coactivator peptide for the GST-GR fusion protein ([1]; immobilized TIF2 732–756 peptide (FIG. 2B))	Substance	effect of ligand on binding of the GST-GR fusion protein to the TIF2 peptide ([1]; five-fold excess of compound over GST-GR LBD (F602S) (FIG. 2B))	binding of dexamethasone to GR (GR LBD (F602S) 521–777)
		(11β, 16α)-9-fluoro-11β,17,21-trihydroxy-16α-methylpregna-1-4-diene-3,20-dione [dexamethasone]	enhanced	saturable and competable
stabilizes	submicromolar	QEPVSPKKKENALLRYLLDKDDTKD [TIF2 peptide]		
